Results published in ChEMBL document CHEMBL5518226, “A Vancomycin-Templated DNA-Encoded Library for Combating Drug-Resistant Bacteria” (2024).
Converted amounts (≈) assume the structure as drawn. The source made the active and inactive calls. The rule behind the calls is not given here.

How the values were obtained:
Staphylococcus aureus [1] = assay: Antibacterial activity against vancomycin-intermediate resistant Staphylococcus aureus Mu50 assessed as reduction in fluorescence at 10 uM incubated for 1 hrs by fluorescence microscopic analysis; format: functional, organism-based
Staphylococcus aureus [2] = assay: Antibacterial activity against methicillin sensitive Staphylococcus aureus Newman assessed as inhibition of bacterial growth incubated for 24 hrs by CLSI protocol based broth microdilution method; format: functional
Staphylococcus aureus [3] = assay: Antibacterial activity against methicillin sensitive Staphylococcus aureus clinical isolate 20-45 assessed as inhibition of bacterial growth incubated for 24 hrs by CLSI protocol based broth microdilution method; format: functional
Staphylococcus aureus [4] = assay: Antibacterial activity against methicillin sensitive Staphylococcus aureus ATCC29213 assessed as inhibition of bacterial growth incubated for 24 hrs by CLSI protocol based broth microdilution method; format: functional
Staphylococcus aureus [5] = assay: Antibacterial activity against methicillin resistant Staphylococcus aureus USA300 assessed as inhibition of bacterial growth incubated for 24 hrs by CLSI protocol based broth microdilution method; format: functional
Staphylococcus aureus [6] = assay: Antibacterial activity against methicillin resistant Staphylococcus aureus clinical isolate 20-34 assessed as inhibition of bacterial growth incubated for 24 hrs by CLSI protocol based broth microdilution method; format: functional
Staphylococcus aureus [7] = assay: Antibacterial activity against vancomycin-intermediate resistant Staphylococcus aureus ATCC700699 assessed as inhibition of bacterial growth incubated for 24 hrs by CLSI protocol based broth microdilution method; format: functional
[8] = system: Staphylococcus epidermidis; assay: Antibacterial activity against methicillin sensitive Staphylococcus epidermidis clinical isolate 20-1 assessed as inhibition of bacterial growth incubated for 24 hrs by CLSI protocol based broth microdilution method; format: functional
[9] = system: Staphylococcus epidermidis; assay: Antibacterial activity against methicillin resistant Staphylococcus epidermidis clinical isolate 20-1 assessed as inhibition of bacterial growth incubated for 24 hrs by CLSI protocol based broth microdilution method; format: functional
Enterococcus faecalis [10] = assay: Antibacterial activity against Enterococcus faecalis clinical isolate 20-11 assessed as inhibition of bacterial growth incubated for 24 hrs by CLSI protocol based broth microdilution method; format: functional
Enterococcus faecalis [11] = assay: Antibacterial activity against vancomycin resistant Enterococcus faecalis clinical isolate 20-1 assessed as inhibition of bacterial growth incubated for 24 hrs by CLSI protocol based broth microdilution method; format: functional
Enterococcus faecium [12] = assay: Antibacterial activity against Enterococcus faecium clinical isolate 20-15 assessed as inhibition of bacterial growth incubated for 24 hrs by CLSI protocol based broth microdilution method; format: functional
Enterococcus faecium [13] = assay: Antibacterial activity against Enterococcus faecium clinical isolate 20-16 assessed as inhibition of bacterial growth incubated for 24 hrs by CLSI protocol based broth microdilution method; format: functional
Streptococcus pneumoniae [14] = assay: Antibacterial activity against penicillin susceptible Streptococcus pneumoniae clinical isolate 20-1 assessed as inhibition of bacterial growth incubated for 24 hrs by CLSI protocol based broth microdilution method; format: functional
Streptococcus pneumoniae [15] = assay: Antibacterial activity against Streptococcus pneumoniae ATCC49619 assessed as inhibition of bacterial growth incubated for 24 hrs by CLSI protocol based broth microdilution method; format: functional
Enterococcus faecium [16] = assay: Antibacterial activity against vancomycin-resistant Enterococcus faecium 0649 assessed as reduction in bacterial growth by measuring fold change at 0.0625 to 64 ug/ml incubated for 24 hrs by CLSI protocol based broth microdilution method relative to vancomycin; format: functional; details: dose 0.0625-64 µg/ml
Staphylococcus aureus [17] = assay: Antibacterial activity against vancomycin-intermediate resistant Staphylococcus aureus Mu50 assessed as reduction in bacterial growth by measuring fold change at 0.0625 to 64 ug/ml incubated for 24 hrs by CLSI protocol based broth microdilution method relative to vancomycin; format: functional; details: dose 0.0625-64 µg/ml
Streptococcus pneumoniae [18] = assay: Antibacterial activity against penicillin resistant Streptococcus pneumoniae clinical isolate 20-1 assessed as inhibition of bacterial growth incubated for 24 hrs by CLSI protocol based broth microdilution method; format: functional
Staphylococcus aureus [19] = assay: Antibacterial activity against vancomycin-intermediate resistant Staphylococcus aureus Mu50 assessed as reduction in bacterial survival at 0.1 mg/ml; format: functional, organism-based
Enterococcus faecium [20] = assay: Antibacterial activity against vancomycin-resistant Enterococcus faecium 0649 assessed as reduction in bacterial survival at 3 mg/ml; format: functional, organism-based
Staphylococcus aureus [21] = assay: Antibacterial activity against vancomycin-intermediate resistant Staphylococcus aureus Mu50 assessed as reduction in bacterial survival at 0.25 to 3 mg/ml; format: functional, organism-based; details: dose 0.25-3 mg/ml
Staphylococcus aureus [22] = assay: Antibacterial activity against linezolid resistant Staphylococcus aureus clinical isolate 20-1 assessed as inhibition of bacterial growth incubated for 24 hrs by CLSI protocol based broth microdilution method; format: functional

CC(C)C[C@H](C(=O)N[C@H]1C(=O)N[C@@H](CC(N)=O)C(=O)N[C@H]2C(=O)N[C@H]3C(=O)N[C@H](C(=O)N[C@H](C(=O)O)c4cc(O)cc(O)c4-c4cc3ccc4O)[C@H](O)c3ccc(c(Cl)c3)Oc3cc2cc(c3O[C@@H]2O[C@H](CO)[C@@H](O)[C@H](O)[C@H]2O[C@H]2C[C@](C)(N)[C@H](O)[C@H](C)O2)Oc2ccc(cc2Cl)[C@H]1O)N(C)C(=S)Nc1ccc2c(c1)C(=O)OC21c2ccc(O)cc2Oc2cc(O)ccc21
Activity (Staphylococcus aureus [1]): inactive

CN[C@H](CC(C)C)C(=O)N[C@H]1C(=O)N[C@@H](CC(N)=O)C(=O)N[C@H]2C(=O)N[C@H]3C(=O)N[C@H](C(=O)N[C@H](C(=O)NCCCc4cn(-c5ccc(OC(F)F)cc5)nn4)c4cc(O)cc(O)c4-c4cc3ccc4O)[C@H](O)c3ccc(c(Cl)c3)Oc3cc2cc(c3O[C@@H]2O[C@H](CO)[C@@H](O)[C@H](O)[C@H]2O[C@H]2C[C@](C)(N)[C@H](O)[C@H](C)O2)Oc2ccc(cc2Cl)[C@H]1O
MIC (Staphylococcus aureus [2]): 0.125 µg/mL (≈ 0.0736 µM) | MIC (Staphylococcus aureus [3]): ≤ 0.015 µg/mL | MIC (Staphylococcus aureus [4]): ≤ 0.015 µg/mL | MIC (Staphylococcus aureus [5]): 0.06 µg/mL (≈ 0.0353 µM) | MIC (Staphylococcus aureus [6]): 0.06 µg/mL (≈ 0.0353 µM) | MIC (Staphylococcus aureus [7]): 1 µg/mL (≈ 0.588 µM) | MIC [8]: 0.25 µg/mL (≈ 0.147 µM) | MIC [9]: 0.25 µg/mL (≈ 0.147 µM) | MIC (Enterococcus faecalis [10]): ≤ 0.015 µg/mL | MIC (Enterococcus faecalis [11]): 16 µg/mL (≈ 9.41 µM) | MIC (Enterococcus faecium [12]): ≤ 0.015 µg/mL | MIC (Enterococcus faecium [13]): 0.125 µg/mL (≈ 0.0736 µM) | MIC (Streptococcus pneumoniae [14]): ≤ 0.015 µg/mL | MIC (Streptococcus pneumoniae [15]): ≤ 0.015 µg/mL | fold change (FC) (Enterococcus faecium [16]): 8 | fold change (FC) (Staphylococcus aureus [17]): 8

CN[C@H](CC(C)C)C(=O)N[C@H]1C(=O)N[C@@H](CC(N)=O)C(=O)N[C@H]2C(=O)N[C@H]3C(=O)N[C@H](C(=O)N[C@H](C(=O)O)c4cc(O)cc(O)c4-c4cc3ccc4O)[C@H](O)c3ccc(c(Cl)c3)Oc3cc2cc(c3O[C@@H]2O[C@H](CO)[C@@H](O)[C@H](O)[C@H]2O[C@H]2C[C@](C)(N)[C@H](O)[C@H](C)O2)Oc2ccc(cc2Cl)[C@H]1O [VANCOMYCIN]
MIC (Enterococcus faecalis [10]): 1 µg/mL (≈ 0.69 µM) | MIC (Enterococcus faecalis [11]): > 64 µg/mL | MIC (Streptococcus pneumoniae [14]): 0.25 µg/mL (≈ 0.173 µM) | MIC (Streptococcus pneumoniae [18]): 0.25 µg/mL (≈ 0.173 µM) | MIC (Streptococcus pneumoniae [15]): 0.5 µg/mL (≈ 0.345 µM) | Activity (Staphylococcus aureus [19]): inactive | Activity (Enterococcus faecium [20]): inactive | Activity (Staphylococcus aureus [21]): Active

CN[C@H](CC(C)C)C(=O)N[C@H]1C(=O)N[C@@H](CC(N)=O)C(=O)N[C@H]2C(=O)N[C@H]3C(=O)N[C@H](C(=O)N[C@H](C(=O)NCCCc4cn(Cc5ccc(Cl)c(Cl)c5)nn4)c4cc(O)cc(O)c4-c4cc3ccc4O)[C@H](O)c3ccc(c(Cl)c3)Oc3cc2cc(c3O[C@@H]2O[C@H](CO)[C@@H](O)[C@H](O)[C@H]2O[C@H]2C[C@](C)(N)[C@H](O)[C@H](C)O2)Oc2ccc(cc2Cl)[C@H]1O
MIC (Staphylococcus aureus [2]): 0.03 µg/mL (≈ 0.0175 µM) | MIC (Staphylococcus aureus [3]): 0.125 µg/mL (≈ 0.0728 µM) | MIC (Staphylococcus aureus [4]): 0.125 µg/mL (≈ 0.0728 µM) | MIC (Staphylococcus aureus [5]): ≤ 0.015 µg/mL | MIC (Staphylococcus aureus [6]): 0.125 µg/mL (≈ 0.0728 µM) | MIC (Staphylococcus aureus [7]): 2 µg/mL (≈ 1.17 µM) | MIC (Staphylococcus aureus [22]): 0.125 µg/mL (≈ 0.0728 µM) | MIC [8]: 0.25 µg/mL (≈ 0.146 µM) | MIC [9]: 0.25 µg/mL (≈ 0.146 µM) | MIC (Enterococcus faecalis [10]): 0.03 µg/mL (≈ 0.0175 µM) | MIC (Enterococcus faecalis [11]): 16 µg/mL (≈ 9.32 µM) | MIC (Enterococcus faecium [12]): ≤ 0.015 µg/mL | MIC (Enterococcus faecium [13]): 0.06 µg/mL (≈ 0.035 µM) | MIC (Streptococcus pneumoniae [14]): ≤ 0.015 µg/mL | MIC (Streptococcus pneumoniae [15]): ≤ 0.015 µg/mL | fold change (FC) (Enterococcus faecium [16]): 8 | fold change (FC) (Staphylococcus aureus [17]): 8

C[C@H]1COc2c(N3CCN(C)CC3)c(F)cc3c(=O)c(C(=O)O)cn1c23 [LEVOFLOXACIN ANHYDROUS]
MIC (Staphylococcus aureus [3]): 0.25 µg/mL (≈ 0.692 µM) | MIC (Staphylococcus aureus [4]): 0.125 µg/mL (≈ 0.346 µM) | MIC (Staphylococcus aureus [6]): 16 µg/mL (≈ 44.3 µM) | MIC (Staphylococcus aureus [7]): 8 µg/mL (≈ 22.1 µM) | MIC (Staphylococcus aureus [22]): 16 µg/mL (≈ 44.3 µM) | MIC [8]: 4 µg/mL (≈ 11.1 µM) | MIC [9]: 4 µg/mL (≈ 11.1 µM) | MIC (Enterococcus faecalis [10]): 1 µg/mL (≈ 2.77 µM) | MIC (Enterococcus faecalis [11]): 64 µg/mL (≈ 177 µM) | MIC (Enterococcus faecium [12]): > 64 µg/mL | MIC (Enterococcus faecium [13]): 64 µg/mL (≈ 177 µM)
